These results are taken from publication PMC8842743 (Journal of Alzheimer's Disease Reports, 2022).

pIC50: −log10 of the molar value.

Assay [1] addresses Porcine gastric mucosa pepsin (Sus scrofa, UniProt P00791). As to the kind of experiment: Pepsin FRET assay. The assay is classed as biochemical.
Assay [2] addresses T1, Renin recombinant human enzyme (Homo sapiens, UniProt P00797).
T1 sequence (P00797 67-406): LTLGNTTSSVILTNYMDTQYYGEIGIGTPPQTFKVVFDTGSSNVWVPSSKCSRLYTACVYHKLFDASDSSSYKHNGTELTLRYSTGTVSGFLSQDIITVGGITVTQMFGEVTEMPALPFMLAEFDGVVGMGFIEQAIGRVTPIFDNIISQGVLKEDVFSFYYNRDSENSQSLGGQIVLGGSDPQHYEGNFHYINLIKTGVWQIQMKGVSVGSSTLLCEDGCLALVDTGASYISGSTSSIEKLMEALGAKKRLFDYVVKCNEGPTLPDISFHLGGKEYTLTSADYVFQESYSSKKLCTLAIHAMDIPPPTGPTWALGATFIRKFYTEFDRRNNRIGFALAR
As to the kind of experiment: Renin FRET assay. Format: biochemical.

In a further assay the test system is Aβ. The following applies: cited from earlier work.

Porcine gastric mucosa pepsin, sequence (P00791 60-385): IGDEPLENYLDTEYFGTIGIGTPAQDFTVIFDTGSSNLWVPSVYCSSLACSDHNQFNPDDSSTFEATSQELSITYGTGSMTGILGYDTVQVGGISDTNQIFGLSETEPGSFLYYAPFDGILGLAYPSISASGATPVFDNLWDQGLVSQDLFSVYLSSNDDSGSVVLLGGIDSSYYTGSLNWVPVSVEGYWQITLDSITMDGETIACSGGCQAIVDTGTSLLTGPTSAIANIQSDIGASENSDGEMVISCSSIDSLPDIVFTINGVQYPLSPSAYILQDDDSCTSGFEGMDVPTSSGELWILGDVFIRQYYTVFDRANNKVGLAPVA

As a reminder, the pIC50 is the IC50 on a negative log10 scale, so that one unit is a factor of ten. On to `NC1=N[C@@]2(c3cc(NC(=O)c4ccc(F)cn4)ccc3F)COC[C@H]2CS1` [LY2886721, reference compound], for which the pIC50 was 4.11 in assay [1] and 4.85 in assay [2].
`CN1C(=N)N[C@](C)(c2cc(NC(=O)c3ccc(F)cn3)ccc2F)CS1(=O)=O` [verubecestat]: the “Aβ reduction explored in Phase III studies” value in the assay with Aβ was “approximately 85%”.
